Source: ChEMBL document CHEMBL2384899, “Synthesis and structure-activity relationships of phosphonic arginine mimetics as inhibitors of the M1 and M17 aminopeptidases from Plasmodium falciparum” (J Med Chem, 2013)

Tests used:
[1] = Inhibition of Plasmodium falciparum recombinant M17 leucyl aminopeptidase expressed in Escherichia coli assessed as conversion of L-leucine-7-amido-4-methylcoumarin hydrochloride to NHMec preincubated for 10 mins prior to substrate addition by Dixon plot analysis
[2] = Inhibition of Plasmodium falciparum recombinant M1 aminopeptidase expressed in Escherichia coli assessed as conversion of L-leucine-7-amido-4-methylcoumarin hydrochloride to NHMec preincubated for 10 mins prior to substrate addition by Dixon plot analysis

| SMILES | Ki [1] [µM] | Ki [2] [µM] |
| --- | --- | --- |
| N=C(N)Nc1cccc(C(N)P(=O)(O)O)c1 (stereo unspecified) | 0.16 | > 1000 |
| N=C(N)NCCCCC(N)P(=O)(O)O (stereo unspecified) | 268 | 11 |
| NCCCC(N)P(=O)(O)O (stereo unspecified) | > 1000 | > 1000 |
| N=C(N)Nc1ccc(CC(N)P(=O)(O)O)cc1 (stereo unspecified) | 63 | > 1000 |
| N=C(N)Nc1ccc(C(N)P(=O)(O)O)cc1 (stereo unspecified) | 1.8 | 127 |
| NC(c1ccc(-n2cccn2)cc1)P(=O)(O)O (stereo unspecified) | 0.011 | 104 |
| N=C(N)c1ccc(C(N)P(=O)(O)O)cc1 (stereo unspecified) | > 1000 | 345 |
| NC(N)=NCCCC(N)P(=O)(O)O (stereo unspecified) | > 1000 | 193 |
